# Reference: patent publication US6967215B2, “Tetrahydrocarbazoles, a process for the preparation of those compounds, and the use thereof” (Ciba Specialty Chemicals Corporation, priority 2000, dated 2005)
# Assays:
# Assay in all cases: MIC, microtitre dilution test (growth by optical density at 620 nm)
# Assay type in all cases: cell-based
# [1] = tested on: Escherichia coli NCTC 8196; details: for MIC [ppm] E. coli: Table 2, Escherichia coli; for MIC [ppm] E. coil: Table 5
# Procedure: (§1) Casein/soybean flour peptone bouillon for the preparation of pre-cultures of the test bacteria and yeast.
# (§2) The test substances are predissolved in dimethyl sulfoxide (DMSO) and tested in a dilution series of 1:2.
# (§3) Bacteria and yeast are cultured overnight in CASO bouillon, the mould is cultured overnight on mycological slant agar, and washed off with 10 ml of 0.85% sodium chloride solution (+0.1% TritonX-100).
# (§4) All the test organisms are adjusted to an organism count of 1-5×10^6 CFU/ml using 0.85% sodium chloride solution.
# (§5) The test substances are pre-pipetted into microtitre plates in an amount of 8 μl per well.
# (§6) Pre-diluted organism suspensions are diluted 1:100 in CASO bouillon (bacteria and yeast) or Sabouraud 2% glucose bouillon (mould) and are added in an amount of 192 μl per well to the test substances.
# (§7) The test batches are incubated for 48 hours at 37° C. (bacteria and yeast) or for 5 days at 28° C. (mould).
# (§8) After incubation, the growth is evaluated by reference to the turbidity of the test batches (optical density) at 620 nm in a microplate reader.
# (§9) The minimum inhibitory concentration (MIC value) is the concentration of substance at which (compared with the growth of the control) an appreciable inhibition of growth (≦20% growth) of the test organisms is ascertained.
# (§10) One microtitre plate is used for each test organism and substance concentration. All the substances are tested in duplicate.
# [2] = tested on: Staphylococcus hominis DMS 20328
# Procedure: as §1, §2, §3, §4, §5, §6, §7, §8, §9, §10
# [3] = tested on: Aspergillus niger ATCC 6175; details: Table 5
# Procedure: (§11) Nutrient: Mycological slant agar for the pre-culture of moulds [table] The test substances are predissolved in dimethyl sulfoxide (DMSO) and tested in a dilution series of 1:2. Bacteria and yeast are cultured overnight in CASO bouillon, the mould is cultured overnight on mycological slant agar, and washed off with 10 ml of 0.85% sodium chloride solution (+0.1% TritonX-100). All the test organisms are adjusted to an organism count of 1-5×10^6 CFU/ml using 0.85% sodium chloride solution. The test substances are pre-pipetted into microtitre plates in an amount of 8 μl per well. Pre-diluted organism suspensions are diluted 1:100 in CASO bouillon (bacteria and yeast) or Sabouraud 2% glucose bouillon (mould) and are added in an amount of 192 μl per well to the test substances. The test batches are incubated for 48 hours at 37° C. (bacteria and yeast) or for 5 days at 28° C. (mould). After incubation, the growth is evaluated by reference to the turbidity of the test batches (optical density) at 620 nm in a microplate reader. The minimum inhibitory concentration (MIC value) is the concentration of substance at which (compared with the growth of the control) an appreciable inhibition of growth (≦20% growth) of the test organisms is ascertained. One microtitre plate is used for each test organism and substance concentration. All the substances are tested in duplicate.
# P. aeruginosa = details: Table 5
# Procedure: as §11, with “All” for “Nutrient: Mycological slant agar for the pre-culture of moulds [table] The test substances are predissolved in dimethyl sulfoxide (DMSO) and tested in a dilution series of 1:2. Bacteria and yeast are cultured overnight in CASO bouillon, the mould is cultured overnight on mycological slant agar, and washed off with 10 ml of 0.85% sodium chloride solution (+0.1% TritonX-100). All”
# [4] = Table 2, Staphylococcus hominis DMS 20328
smiles,measurement,setting,value
CN1C(=O)C2c3[nH]c4ccccc4c3C3CC(C)(C)CC(C)(C)C3C2C1=O (stereo not drawn) [Compound 126],MIC [ppm] E. coli,[1],>120 ppm
same,MIC [ppm] S. hominis,[2]; [4],>120 ppm
CN1C(=O)C2c3[nH]c4ccc(Br)cc4c3C3CCC(C(C)(C)C)CC3C2C1=O (stereo not drawn) [Compound 129],MIC [ppm] E. coli,[1],>120 ppm
same,MIC [ppm] S. hominis,[2]; [4],>120 ppm
CN1C(=O)C2c3[nH]c4ccc(Br)cc4c3C3CCCCCC3C2C1=O (stereo not drawn) [Compound 130],MIC [ppm] E. coli,[1],>120 ppm
same,MIC [ppm] S. hominis,[2]; [4],15 ppm
CCc1cccc2c3c([nH]c12)C1C(=O)N(C)C(=O)C1C1CCCCCCC31 (stereo not drawn) [Compound 162],MIC [ppm] E. coli,[1],>120 ppm
same,MIC [ppm] S. hominis,[2]; [4],120 ppm
COc1ccc2[nH]c3c(c2c1)C1CCCCC1C1C(=O)N(C)C(=O)C31 (stereo not drawn) [Compound 164],MIC [ppm] E. coli,[1],>120 ppm
same,MIC [ppm] S. hominis,[2]; [4],>120 ppm
COc1ccc2[nH]c3c(c2c1)C1CCCC1C1C(=O)N(C)C(=O)C31 (stereo not drawn) [Compound 165],MIC [ppm] E. coli,[1],>120 ppm
same,MIC [ppm] S. hominis,[2]; [4],120 ppm
COc1ccc2[nH]c3c(c2c1)C1CCC(C(C)(C)C)CC1C1C(=O)N(C)C(=O)C31 (stereo not drawn) [Compound 166],MIC [ppm] E. coli,[1],>120 ppm
same,MIC [ppm] S. hominis,[2]; [4],>120 ppm
COc1ccc2[nH]c3c(c2c1)C1CCCCCC1C1C(=O)N(C)C(=O)C31 (stereo not drawn) [Compound 167],MIC [ppm] E. coli,[1],>120 ppm
same,MIC [ppm] S. hominis,[2]; [4],>120 ppm
COc1ccc2[nH]c3c(c2c1)C1CC(C)(C)NC(C)(C)C1C1C(=O)N(C)C(=O)C31 (stereo not drawn) [Compound 168],MIC [ppm] E. coli,[1],>120 ppm
same,MIC [ppm] S. hominis,[2]; [4],>120 ppm
CCCN1CCC2c3c([nH]c4ccc(OC)cc34)C3C(=O)N(C)C(=O)C3C2C1 (stereo not drawn) [Compound 169],MIC [ppm] E. coli,[1],>120 ppm
same,MIC [ppm] S. hominis,[2]; [4],>120 ppm
CCOC(=O)N1CCC2c3c([nH]c4ccc(OC)cc34)C3C(=O)N(C)C(=O)C3C2C1 (stereo not drawn) [Compound 170],MIC [ppm] E. coli,[1],>120 ppm
same,MIC [ppm] S. hominis,[2]; [4],>120 ppm
COc1ccc2[nH]c3c(c2c1)C1CCN(C(C)C)CC1C1C(=O)N(C)C(=O)C31 (stereo not drawn) [Compound 171],MIC [ppm] E. coli,[1],>120 ppm
same,MIC [ppm] S. hominis,[2]; [4],>120 ppm
COc1ccc2[nH]c3c(c2c1)C1CC(C)CCC1C1C(=O)N(C)C(=O)C31 (stereo not drawn) [Compound 172],MIC [ppm] E. coli,[1],>120 ppm
same,MIC [ppm] S. hominis,[2]; [4],>120 ppm
CCCC1CCC2c3c([nH]c4ccc(OC)cc34)C3C(=O)N(C)C(=O)C3C2C1 (stereo not drawn) [Compound 174],MIC [ppm] E. coli,[1],>120 ppm
same,MIC [ppm] S. hominis,[2]; [4],30 ppm
CCC(C)(C)C1CCC2c3c([nH]c4ccc(OC)cc34)C3C(=O)N(C)C(=O)C3C2C1 (stereo not drawn) [Compound 175],MIC [ppm] E. coli,[1],>120 ppm
same,MIC [ppm] S. hominis,[2]; [4],>120 ppm
CCN1CCC2c3c([nH]c4ccc(OC)cc34)C3C(=O)N(C)C(=O)C3C2C1 (stereo not drawn) [Compound 176],MIC [ppm] E. coli,[1],>120 ppm
same,MIC [ppm] S. hominis,[2]; [4],>120 ppm
COc1ccc2[nH]c3c(c2c1)C1CCN(Cc2ccccc2)CC1C1C(=O)N(C)C(=O)C31 (stereo not drawn) [Compound 177],MIC [ppm] E. coli,[1],120 ppm
same,MIC [ppm] S. hominis,[2]; [4],120 ppm
COc1ccc2[nH]c3c(c2c1)C1CCN(C)CC1C1C(=O)N(C)C(=O)C31 (stereo not drawn) [Compound 178],MIC [ppm] E. coli,[1],>120 ppm
same,MIC [ppm] S. hominis,[2]; [4],>120 ppm
COc1ccc2[nH]c3c(c2c1)C1CCCCCCCCCCC1C1C(=O)N(C)C(=O)C31 (stereo not drawn) [Compound 179],MIC [ppm] E. coli,[1],>120 ppm
same,MIC [ppm] S. hominis,[2]; [4],>120 ppm
COc1ccc2[nH]c3c(c2c1)C1CCCCCCC1C1C(=O)N(C)C(=O)C31 (stereo not drawn) [Compound 180],MIC [ppm] E. coli,[1],>120 ppm
same,MIC [ppm] S. hominis,[2]; [4],>120 ppm
COc1ccc2[nH]c3c(c2c1)C1CC(C)(C)CC(C)(C)C1C1C(=O)N(C)C(=O)C31 (stereo not drawn) [Compound 181],MIC [ppm] E. coli,[1],>120 ppm
same,MIC [ppm] S. hominis,[2]; [4],>120 ppm
O=C1NC(=O)C2C1c1[nH]c3ccccc3c1C1CC3CCCCC3CC12 (stereo not drawn) [Compound 183],MIC [ppm] E. coil,[1],>120 ppm
same,MIC [ppm] S. hominis,[2]; Table 5,15 ppm
same,MIC [ppm] A. niger,[3],>120 ppm
same,MIC [ppm] P. aeruginosa,P. aeruginosa,>120 ppm
CCCN1CCC2c3c([nH]c4cccc(C)c34)C3C(=O)NC(=O)C3C2C1 (stereo not drawn) [Compound 186],MIC [ppm] E. coil,[1],>120 ppm
same,MIC [ppm] S. hominis,[2]; Table 5,>120 ppm
same,MIC [ppm] A. niger,[3],>120 ppm
same,MIC [ppm] P. aeruginosa,P. aeruginosa,120 ppm
COc1cccc2[nH]c3c(c12)C1CCCCCC1C1C(=O)NC(=O)C31 (stereo not drawn) [Compound 187],MIC [ppm] E. coil,[1],>120 ppm
same,MIC [ppm] S. hominis,[2]; Table 5,30 ppm
same,MIC [ppm] A. niger,[3],>120 ppm
same,MIC [ppm] P. aeruginosa,P. aeruginosa,60 ppm
COc1cccc2[nH]c3c(c12)C1CCCCCCCCCCC1C1C(=O)NC(=O)C31 (stereo not drawn) [Compound 188],MIC [ppm] E. coil,[1],>120 ppm
same,MIC [ppm] S. hominis,[2]; Table 5,15 ppm
same,MIC [ppm] A. niger,[3],>120 ppm
same,MIC [ppm] P. aeruginosa,P. aeruginosa,>120 ppm
CC(C)NCC(O)COc1cccc2[nH]c3c(c12)C1CCCCCC1C1C(=O)NC(=O)C31 (stereo not drawn) [Compound 189],MIC [ppm] E. coil,[1],120 ppm
same,MIC [ppm] S. hominis,[2]; Table 5,15 ppm
same,MIC [ppm] A. niger,[3],>120 ppm
same,MIC [ppm] P. aeruginosa,P. aeruginosa,>120 ppm
CCCN1CCC2c3c([nH]c4cccc(OCC(O)CNC(C)C)c34)C3C(=O)NC(=O)C3C2C1 (stereo not drawn) [Compound 190],MIC [ppm] E. coil,[1],>120 ppm
same,MIC [ppm] S. hominis,[2]; Table 5,>120 ppm
same,MIC [ppm] A. niger,[3],>120 ppm
same,MIC [ppm] P. aeruginosa,P. aeruginosa,>120 ppm
CCCN1CCC2c3c([nH]c4ccc(F)cc34)C3C(=O)NC(=O)C3C2C1 (stereo not drawn) [Compound 193],MIC [ppm] E. coil,[1],60 ppm
same,MIC [ppm] S. hominis,[2]; Table 5,>120 ppm
same,MIC [ppm] A. niger,[3],>120 ppm
same,MIC [ppm] P. aeruginosa,P. aeruginosa,>120 ppm
CCCN1CCC2c3c([nH]c4cc(Cl)ccc34)C3C(=O)NC(=O)C3C2C1 (stereo not drawn) [Compound 199],MIC [ppm] E. coil,[1],>120 ppm
same,MIC [ppm] S. hominis,[2]; Table 5,120 ppm
same,MIC [ppm] A. niger,[3],>120 ppm
same,MIC [ppm] P. aeruginosa,P. aeruginosa,>120 ppm
CCCN1CCC2c3c([nH]c4cccc(C(=O)OC)c34)C3C(=O)NC(=O)C3C2C1 (stereo not drawn) [Compound 201],MIC [ppm] E. coil,[1],>120 ppm
same,MIC [ppm] S. hominis,[2]; Table 5,>120 ppm
same,MIC [ppm] A. niger,[3],>120 ppm
same,MIC [ppm] P. aeruginosa,P. aeruginosa,60 ppm
CCCN1CCC2c3c([nH]c4cc(C)ccc34)C3C(=O)NC(=O)C3C2C1 (stereo not drawn) [Compound 203],MIC [ppm] E. coil,[1],>120 ppm
same,MIC [ppm] S. hominis,[2]; Table 5,>120 ppm
same,MIC [ppm] A. niger,[3],>120 ppm
same,MIC [ppm] P. aeruginosa,P. aeruginosa,>120 ppm
CCCN1CCC2c3c([nH]c4cc(F)ccc34)C3C(=O)NC(=O)C3C2C1 (stereo not drawn) [Compound 207],MIC [ppm] E. coil,[1],>120 ppm
same,MIC [ppm] S. hominis,[2]; Table 5,>120 ppm
same,MIC [ppm] A. niger,[3],>120 ppm
same,MIC [ppm] P. aeruginosa,P. aeruginosa,120 ppm
CCCN1CCC2c3c([nH]c4c(F)cccc34)C3C(=O)NC(=O)C3C2C1 (stereo not drawn) [Compound 211],MIC [ppm] E. coil,[1],120 ppm
same,MIC [ppm] S. hominis,[2]; Table 5,>120 ppm
same,MIC [ppm] A. niger,[3],>120 ppm
same,MIC [ppm] P. aeruginosa,P. aeruginosa,120 ppm
CCCN1CCC2c3c([nH]c4cc(C(F)(F)F)ccc34)C3C(=O)NC(=O)C3C2C1 (stereo not drawn) [Compound 215],MIC [ppm] E. coil,[1],60 ppm
same,MIC [ppm] S. hominis,[2]; Table 5,30 ppm
same,MIC [ppm] A. niger,[3],>120 ppm
same,MIC [ppm] P. aeruginosa,P. aeruginosa,120 ppm
CCCN1CCC2c3c([nH]c4cc(F)c(F)cc34)C3C(=O)NC(=O)C3C2C1 (stereo not drawn) [Compound 219],MIC [ppm] E. coil,[1],>120 ppm
same,MIC [ppm] S. hominis,[2]; Table 5,>120 ppm
same,MIC [ppm] A. niger,[3],>120 ppm
same,MIC [ppm] P. aeruginosa,P. aeruginosa,>120 ppm
CCCN1CCC2c3c([nH]c4c(C)cccc34)C3C(=O)NC(=O)C3C2C1 (stereo not drawn) [Compound 222],MIC [ppm] E. coil,[1],120 ppm
same,MIC [ppm] S. hominis,[2]; Table 5,120 ppm
same,MIC [ppm] A. niger,[3],>120 ppm
same,MIC [ppm] P. aeruginosa,P. aeruginosa,>120 ppm
